According to US9421193B2, “Benzothiazole derivatives and a use thereof for the treatment of cancer” (Korea Institute of Radiological & Medical Sciences, priority 2014, dated 2016):
pIC50: −log10 of the molar value.

How the values were obtained:
Format in all cases: cell-based, human
[1] = system: non-small cell lung cancer cell strain H460; experiment: Trypan blue live cell count (cell viability); conditions: for cancer cell apoptosis effect: 50 μM; for cancer cell apoptosis effect with respect to concentration and incubation time: FIGS. 3A and 3B, PB12 at 150 μM; for pIC50: Homo sapiens, NCI-H460, time taken to reach the IC50 48 hours
Procedure: (§1) Whether the cancer cell growth inhibitory effects of the compounds PB01 and PB11 on the non-small cell lung cancer cell strains is associated with apoptosis was investigated. The cell growth inhibitory effects were evaluated by a trypan blue assay, and cell shapes were observed using an inverted microscope. The shapes of cell nuclei were observed via Hoeschst 33342 staining. Degrees of inducing apoptosis were quantized by flow cytometry (fluorescent activated cell sorting (FACS)).
(§2) After about 5×10^3 cells per well of each of the human non-small cell lung cancer cell strains A549 and H460 were portioned into a 96-well plate, about 10 uM to about 50 uM of the compounds PB01 or PB11 in 200 ul of culture solution were added into the wells, and incubated for about 8 to 72 hours. Cells were collected from the incubation product, and centrifuged at about 2,000 rpm for 5 minutes. After removing a supernatant, the remaining cells were mixed with 1 mL of phosphate-buffered saline (PBS) to obtain a cell suspension, which was then mixed with an equal amount of 0.5% trypan blue (Gibco BRL), followed by treatment for about 1 minute. The number of live cells was counted using a phase-contrast) microscope. The live cell counting was repeated three times, and an average live cell count and a standard error were calculated using a Microsoft Excel program. Cell viability graphs with respect to compound concentration and incubation time were obtained. The same experiment was performed with 50 μM of the compound PB01, PB11 50 μM of the compound PB11, or 150 μM of the compound PB12 150 μM, and cell viability graphs with respect to compound concentration and incubation time were obtained.

[2] = system: non-small cell lung cancer cell strain A549; experiment: Trypan blue live cell count (cell viability); conditions: for cancer cell apoptosis effect: 50 μM; for cancer cell apoptosis effect with respect to concentration and incubation time: 10-50 uM, 8 to 72 hours, FIG. 3A; for pIC50: Homo sapiens, time taken to reach the IC50 48 hours
Procedure: as §1, §2

[3] = system: non-small cell lung cancer cell strain H460; experiment: Radiation sensitivity measurement, colony formation; conditions: 14 days
Procedure: About 500 cells of non-small cell lung cancer cell strain H460 were floated on each of 60-mm cell culture plates, and then incubated for about 24 hours. After the cells were stably fixed on the bottom of the cell culture plate, the cells were treated with ciglitazone (10 μM), PB01 (10 μM), or PB11 (5 μM, 10 μM), cultured for about 24 hours, and then irradiated with γ-radiation (3.2 Gy/min, Gammacell 3000; Atomic Energy of Canada, Ltd., Mississauga, ON, Canada) at doses of 2 Gy, 4 Gy, and 6 Gy. After incubation for 14 days, followed staining using a 1% crystal violet staining reagent solution (in methanol) to selectively count colonies having a diameter of about 0.5 mm or larger. SF (surviving fraction)=number of colonies formed/number of cells seeded×plating efficiency of the control group

[4] = system: non-small cell lung cancer cell strain H460; experiment: LDH release; conditions: 50 uM, 0 to 48 hours, compared to untreated
Procedure: (§3) After incubation of the non-small cell lung cancer cell strains A549 and H460 treated with the compound PB01 or PB11 for 8, 24, and 48 hours, only supernatants were recovered the culture products. The activity of lactate dehydrogenase (LDH) may be measured by detecting an amount of LDH released from the cell cytosol with a Cytotoxicity Detection Kit (available from Roche Applied Science, Indianapolis, Ind.). The amounts of LDH release induced by the compound PB01 or PB11 were calculated as a percentage amount of extracellular LDH released from the cells with respect to a total amount of LDH as a sum of the extracellular released LDH and the intracellular LDH remaining in the cells.

[5] = system: non-small cell lung cancer cell strain A549; experiment: LDH release; conditions: 50 uM, 0 to 48 hours, compared to untreated
Procedure: as §3

[6] = system: non-small cell lung cancer cell strain H460; experiment: Nuclear agglutination and segmentation, Hoechst 33342 staining; conditions: 50 uM, about 48 hours
Procedure: (§4) To observe typical nuclear morphological changes from cell death, the cells treated with the compounds PB01 or PB11 of Examples 5 and 3 were collected, followed by removing a supernatant. After 500 μl of a fixing solution as a 1:9 mixture of a 37% formaldehyde solution and PBS buffer solution was added into the remaining cells, thoroughly mixed together, and left at room temperature for about 10 minutes for fixation. After the fixed cells were centrifuged at about 2,000 rpm for about 5 minutes, the fixing solution was removed, and the remaining cells were floated in a PBS buffer solution. After dropping the floating cells onto a slide glass, followed by cytospinning at about 1,000 rpm for about 5 minutes to fix the floating cells onto the slide glass. The slide glass with the fixed cells was treated with 2 μg/mL of a Hoechst 33342 solution (Sigma, St. Louis, Mo., U.S.A), followed by staining at room temperature for about 20 minutes. After termination of the staining, the staining reagent was washed out, and nuclear morphological changes in the cancer cells were observed by florescent microscopy (ECLIPSE E600; Nikon, Tokyo, Japan) at a 400× magnification.

[7] = system: non-small cell lung cancer cell strain A549; experiment: as above; conditions: 50 uM, about 48 hours
Procedure: as §4

[8] = system: non-small cell lung cancer cell strain H460; experiment: Apoptosis ratio, Annexin V flow cytometry; conditions: about 40 hours, 50 μM PB01, 50 μM PB11, 150 μM PB12, FIGS. 9A and 9B
Procedure: (§5) About 5×10^5 cells per well of each of the non-small cell lung cancer cell strains A549 and H460 were portioned into a 6-well plate and then incubated with the compounds PB01 or PB11 for about 40 hours in the same manner as described above. A cell layer was washed with PBS and then treated with trypsin-EDTA solution to isolate cells. The isolated cells were collected and stained with an Annexin V Flous Staining kit (available Roche Applied Science, Penzberg, Germany) in a dark condition for about 30 minutes. The stained cells were analyzed by flow cytometry using a FACScan™ (available from Becton Dicknson) to count the number of dead cells and then calculate an apoptosis ratio. The same experiment was performed with 50 μM of PB01, 50 μM of PB11, or 150 μM of PB12 in the same manner as described above. The graphs of cell viability with respect to compound concentration and incubation time obtained based on the experimental results are shown in FIGS. 9A and 9B.

[9] = system: non-small cell lung cancer cell strain A549; experiment: Apoptosis ratio, Annexin V flow cytometry; conditions: 50 μM, about 40 hours, FIG. 9A
Procedure: as §5

COC1CCC(C(=O)Nc2ccc3nc(SCc4c(C)noc4C)sc3c2)CC1 (centres unmarked) [PB01]
cancer cell apoptosis effect [1]: remarkable cancer cell apoptosis effects | cancer cell apoptosis effect with respect to concentration and incubation time [1]: improved cancer cell apoptosis effects with increases in concentration and incubation time | pIC50 [1]: 4.30 | cancer cell apoptosis effect [2]: remarkable cancer cell apoptosis effects | cancer cell apoptosis effect with respect to concentration and incubation time [2]: improved cancer cell apoptosis effects with increases in concentration and incubation time | pIC50 [2]: 4.30 | effect as radiation sensitizer ([3]; 10 μM in combination with radiation at a dose of 4 Gy): significant effect as radiation sensitizers | amount of extracellular LDH released [4]: increased with time | amount of extracellular LDH released [5]: increased with time | nuclear morphological changes (apoptotic bodies) [6]: increased apoptotic bodies due to nuclear agglutination | nuclear morphological changes (apoptotic bodies) [7]: increased apoptotic bodies due to nuclear agglutination | apoptosis induction (Annexin V) [8]: kill the non-small cell lung cancer cells by inducing apoptosis | apoptosis induction (Annexin V) [9]: kill the non-small cell lung cancer cells by inducing apoptosis

Cc1noc(C)c1CSc1nc2ccc(NC(=O)C3CCC(=O)CC3)cc2s1 [PB11]
cancer cell apoptosis effect [1]: remarkable cancer cell apoptosis effects | cancer cell apoptosis effect with respect to concentration and incubation time [1]: improved cancer cell apoptosis effects with increases in concentration and incubation time | pIC50 [1]: 4.30 | cancer cell apoptosis effect [2]: remarkable cancer cell apoptosis effects | cancer cell apoptosis effect with respect to concentration and incubation time [2]: improved cancer cell apoptosis effects with increases in concentration and incubation time | pIC50 [2]: 4.30 | effect as radiation sensitizer ([3]; 5 μM in combination with radiation at a dose of 4 Gy): significant effect as radiation sensitizers | amount of extracellular LDH released [4]: increased with time | amount of extracellular LDH released [5]: increased with time | nuclear morphological changes (apoptotic bodies) [6]: increased apoptotic bodies due to nuclear agglutination | nuclear morphological changes (apoptotic bodies) [7]: increased apoptotic bodies due to nuclear agglutination | apoptosis induction (Annexin V) [8]: kill the non-small cell lung cancer cells by inducing apoptosis | apoptosis induction (Annexin V) [9]: kill the non-small cell lung cancer cells by inducing apoptosis
